Assay results taken from patent US11497749B2, “Mitoflavoscins: targeting flavin-containing enzymes eliminates cancer stem cells (CSCS) by inhibiting mitochondrial respiration” (LUNELLA BIOTECH, INC., priority 2017, dated 2022).
Where two headings read alike, the source gives them in different places.

Assays:
[1] = system: MCF7 cells; conditions: 500 nM DPI, 72 hours
Experimental: Assays were performed according to the manufacturer's protocol.

[2] = system: MCF7 cells; assay: cells
From the text: (§1) A number of methods may be used for functional validation, including, for example, metabolic flux analysis, mammosphere assays, viability assays, and antibiotic (anti-bacterial and/or anti-fungal) activity. The inventors determined real-time oxygen consumption rates (OCR) and extracellular acidification rates (ECAR) in MCF7 cells using the Seahorse Extracellular Flux (XF96) analyzer (Seahorse Bioscience, Mass., USA). Briefly, MCF7 cells were maintained in DMEM supplemented with 10% FBS (fetal bovine serum), 2 mM GlutaMAX, and 1% Pen-Strep. 8,000 cells per well were seeded into XF96-well cell culture plates, and incubated overnight at 37° C. in a 5% CO2 humidified atmosphere. The next day, cells were washed in pre-warmed XF assay media (for OCR measurement, XF assay media was supplemented with 10 mM glucose, 1 mM Pyruvate and adjusted at pH 7.4). Cells were then maintained in 175 μL/well of XF assay media at 37° C., in a non-CO2 incubator for 1 hour. During incubation, 25 μL of 80 mM glucose, 9 μM oligomycin, 1M 2-deoxyglucose (for ECAR measurement) and 25 μL of 10 μM oligomycin, 9 μM FCCP, 10 μM rotenone, 10 μM antimycin A (for OCR measurement) in XF assay media was loaded into the injection ports of the XFe-96 sensor cartridge. During the experiment, the instrument injected these inhibitors into the wells at a given time point, while ECAR/OCR was measured continuously. ECAR and OCR measurements were normalized by protein content (Sulphorhodamine B assay). Data sets were analyzed by XFe-96 software, using one-way ANOVA and Student's t-test calculations. All experiments were performed in triplicate.
It should be appreciated that numerous methods are known for functional validation, and that persons of skill in the art may select one or more depending on the validation needs (e.g., other assays that measure or approximate mitochondrial function).
(§2) Given DPI's high potency, inventors assessed its ability to rapidly affect cell metabolism.
To assess the reversibility of DPI's effects, MCF7 cells were first subjected to DPI treatment for 24 hours. Then, DPI was removed (“wash-out”) and the cells were cultured for an additional 24 hours, to allow recovery.
The inventors also examined the effects of long-term treatment with DPI on cells.

[3] = system: MCF7 cells
From the text: as §1, §2

[4] = system: MCF7 cells; conditions: various concentrations, 1, 3 or 5 days, normalized to vehicle
Experimental: To confirm that the observed increase in ECAR corresponded to L-lactate production, L-lactate levels were measured directly using the ISCUS^flex Microdialysis Analyser (M Dialysis Inc., MA, USA). Culture media were collected, centrifuged and analysed with the ISCUS^flex Microdialysis Analyzer after treatment of MCF7 cells with various concentrations of DPI for 1, 3 or 5 days. Calibration of the instrument was performed by samples provided by the manufacturer. Then L-lactate levels were measured and normalized to samples taken from MCF7 cells treated with vehicle only.

[5] = system: MCF7 cells; assay: cells; conditions: Homo sapiens
Experimental: Cells were grown for 5 days and maintained in a humidified incubator at 37° C. at an atmospheric pressure in 5% (v/v) carbon dioxide/air.

[6] = system: MCF7 cells; conditions: 24 hours
Experimental: Inventors hypothesized that possible mechanism by which DPI inhibits CSC propagation is by inducing mitochondrial reactive oxygen species (ROS) production. To test this hypothesis, inventors determined the effects of DPI on mitochondrial ROS production, over the range of 5 to 50 nM. Briefly, production of superoxide by mitochondria was measured by the MitoSOX™ Red mitochondrial superoxide indicator (ThermoFisher Sci., M36008). 3×10^5 MCF7 cells/well were plated in 6-well plates in complete media supplemented with 10% heat-inactivated FBS. The next day, cells were treated with DPI (5, 50 nM) or Rotenone (0.5 μM) for 24 hours. Vehicle alone (DMSO) for control cells were processed in parallel. At least 30,000 events were recorded by FACS using Fortessa (BD Bioscience). Three biological replicates (repeats) were analyzed in independent experiments.

[7] = system: MCF7 cells; conditions: five days of treatment, concentration as high as 33 nM
Experimental: (§3) The inventors used a Sulphorhodamine (SRB) assay, which is based on the measurement of cellular protein content. After treatment for five days in 96-well plates, cells were fixed with 10% trichloroacetic acid (TCA) for 1 hour in the cold room, and were dried overnight at room temperature. Then, cells were incubated with SRB for 15 min, washed twice with 1% acetic acid, and air dried for at least 1 hour. Finally, the protein-bound dye was dissolved in a 10 mM Tris, pH 8.8 solution and read using the plate reader at 540-nm.

[8] = system: hTERT-BJ1 cells; conditions: five days of incubation, up to 100 nM
Experimental: as §3

[9] = system: MCF7 cells; conditions: 10 nM, 1 month culture
[10] = system: MCF7 cells; assay: cells; conditions: Homo sapiens, MCF7, 120 h, read-out: IC-50, reduction of CD44+/CD24- cell population
Experimental: Inventors examined specific cell surface markers, namely fluorescent antibody probes directed against CD44 and CD24. The CD44+/CD24-cell population represents a CSC-enriched fraction. 1×10^5 MCF7 cells were plated in 6-well plates in complete media supplemented with 10% heat-inactivated FBS. […] Vehicle alone (DMSO) control cells were processed in parallel. Briefly, 30,000-50,000 live cells, as identified by 7-AAD dye staining, were analyzed for CD24/CD44 expression. Inventors used CD24 (IOTest CD24-PE, Beckman Coulter) and CD44 (APC mouse Anti-Human CD44, BD Pharmingen) antibodies for fluorescence activated cell sorting (FACS) analysis, using the BD LSR Fortessa (BD Bioscience). […] One-way ANOVA was used with Bonferroi's multiple comparisons test.

[11] = system: C. elegans; conditions: during response to oxidative stress; cited from earlier work

## c1ccc2c(c1)[I+]c1ccccc1-2 [DPI, Diphenyleneiodonium chloride]
[1]
  cell death (number of attached cells by DNA content): did not significantly induce any cell death
  reduction of ATP levels: > 80%
[2]; 2.5 nM, 24-hour treatment
  effect on OCR: little or no effect
[2]; 5 nM, 24-hour treatment
  reduction of basal respiration: ~50%
[2]; 10 nM, 24-hour treatment
  decrease of basal respiration rate: ~85%
  reduction in ATP production (ATP-linked respiration): > 90%
[2]; 1 month culture with 10, 25 and 50 nM
  inhibition of mitochondrial respiration after long-term treatment: near complete inhibition of respiration
[2]; Homo sapiens, MCF7, 1 h, read-out: IC-50, inhibition of basal respiration
  IC50: 50 nM
[3]; 2.5 nM, 24 hours of treatment
  effect on ECAR: little or no effect
[3]; 10 nM, 24 hours of treatment
  increase of glycolysis: ~2 fold
[3]; one-hour treatment, 5 to 100 nM
  increase of glycolysis: effectively doubled
[4]
  L-lactate production: nearly doubling the amount of lactate produced
[5]; MCF7, 120 h, read-out: IC-50, CSC propagation (mammosphere formation)
  IC50: 3.23 nM
[5]; MCF7, read-out: inhibition of mammosphere formation
  inhibition at 0.005 µM: > 50%
[6]; 5 nM, relative to vehicle
  mitochondrial ROS production: failed to induce any detectable mitochondrial ROS production
[6]; 50 nM, versus positive control Rotenone
  mitochondrial ROS production: induced the same amount of mitochondrial ROS as 500 nM Rotenone
[7]
  toxicity / cell viability in MCF7 cells: little or no toxicity
[8]
  toxic effects / cell viability in normal fibroblasts (hTERT-BJ1): little or no toxic effects
[9]
  morphology and density of the cells: remains unchanged
[10]
  IC50: 10 nM
[11]
  accumulation of lipofuscin (aging-associated marker): prevents the accumulation of lipofuscin
